Assay results taken from PMC3694096, “Development of Novel In Vivo Chemical Probes to Address CNS Protein Kinase Involvement in Synaptic Dysfunction” (PLoS ONE, 2013).
Like-named read-outs stand apart in the source and are kept apart here.

Experiments:
CK2α2 = target: T1, CK2α2 (Homo sapiens, UniProt P19784); assay: Kinome profiler screen; assay type: biochemical
T1 construct: purchased Millipore KinaseProfiler

Tec(h) activated = target: T2, Tec(h) activated (Homo sapiens, UniProt P42680); assay: Kinome profiler screen; assay type: biochemical; details: at 20,000 nM inhibitor; kinase activity remaining
T2 construct: purchased Millipore KinaseProfiler

RIPK2 = target: T3, RIPK2 (Homo sapiens, UniProt O43353); assay: Kinome profiler screen; assay type: biochemical; details: at 20,000 nM inhibitor; kinase activity remaining
T3 construct: purchased Millipore KinaseProfiler

PTK5 = target: T4, PTK5 (Homo sapiens, UniProt P42685); assay: Kinome profiler screen; assay type: biochemical; details: at 20,000 nM inhibitor; kinase activity remaining
T4 construct: purchased Millipore KinaseProfiler

Axl = target: T5, Axl (Homo sapiens, UniProt P30530); assay: Kinome profiler screen; assay type: biochemical; details: at 20,000 nM inhibitor; kinase activity remaining
T5 construct: purchased Millipore KinaseProfiler

FGFR2 = target: T6, FGFR2 (Homo sapiens, UniProt P21802); assay: Kinome profiler screen; assay type: biochemical; details: at 20,000 nM inhibitor; kinase activity remaining
T6 construct: purchased Millipore KinaseProfiler

PKCγ = target: T7, PKCγ (Homo sapiens, UniProt P05129); assay: Kinome profiler screen; assay type: biochemical; details: at 20,000 nM inhibitor; kinase activity remaining
T7 construct: purchased Millipore KinaseProfiler

Plk3 = target: T8, Plk3 (Homo sapiens, UniProt Q9H4B4); assay: Kinome profiler screen; assay type: biochemical; details: at 20,000 nM inhibitor; kinase activity remaining
T8 construct: purchased Millipore KinaseProfiler

SRPK1 = target: T9, SRPK1 (Homo sapiens, UniProt Q96SB4); assay: Kinome profiler screen; assay type: biochemical
T9 construct: purchased Millipore KinaseProfiler

CaMKI = target: T10, CaMKI (Homo sapiens, UniProt Q14012); assay: Kinome profiler screen; assay type: biochemical; details: at 20,000 nM inhibitor; kinase activity remaining
T10 construct: purchased Millipore KinaseProfiler

CaMKIIδ = target: T11, CaMKIIδ (Homo sapiens, UniProt Q13557); assay: Kinome profiler screen; assay type: biochemical; details: at 20,000 nM inhibitor; kinase activity remaining
T11 construct: purchased Millipore KinaseProfiler

PKCμ = target: T12, PKCμ (Homo sapiens, UniProt Q15139); assay: Kinome profiler screen; assay type: biochemical; details: at 20,000 nM inhibitor; kinase activity remaining
T12 construct: purchased Millipore KinaseProfiler

CLK2 = target: T13, CLK2 (Homo sapiens, UniProt P49760); assay: Kinome profiler screen; assay type: biochemical; details: at 20,000 nM inhibitor; kinase activity remaining
T13 construct: purchased Millipore KinaseProfiler

cKit(D816V) = target: T14, cKit(D816V) (Homo sapiens, UniProt P10721, D816V); assay: Kinome profiler screen; assay type: biochemical; details: at 20,000 nM inhibitor; kinase activity remaining
T14 construct: purchased Millipore KinaseProfiler

PKBγ = target: T15, PKBγ (Homo sapiens, UniProt Q9Y243); assay: Kinome profiler screen; assay type: biochemical; details: at 20,000 nM inhibitor; kinase activity remaining
T15 construct: purchased Millipore KinaseProfiler

CK1δ = target: T16, CK1δ (Homo sapiens, UniProt P48730); assay: Kinome profiler screen; assay type: biochemical
T16 construct: purchased Millipore

IR = target: T17, IR (Homo sapiens, UniProt P06213); assay: Kinome profiler screen; assay type: biochemical; details: at 20,000 nM inhibitor; kinase activity remaining
T17 construct: purchased Millipore KinaseProfiler

SGK2 = target: T18, SGK2 (Homo sapiens, UniProt Q9HBY8); assay: Kinome profiler screen; assay type: biochemical; details: at 20,000 nM inhibitor; kinase activity remaining
T18 construct: purchased Millipore KinaseProfiler

IKKβ = target: T19, IKKβ (Homo sapiens, UniProt O14920); assay: Kinome profiler screen; assay type: biochemical; details: at 20,000 nM inhibitor; kinase activity remaining
T19 construct: purchased Millipore KinaseProfiler

MST3 = target: T20, MST3 (Homo sapiens, UniProt Q9Y6E0); assay: Kinome profiler screen; assay type: biochemical; details: at 20,000 nM inhibitor; kinase activity remaining
T20 construct: purchased Millipore KinaseProfiler

[1] = target: T21, PI3 Kinase (p110 β/p85α)(m) (Mus musculus, UniProt Q8BTI9); assay: Kinome profiler screen; assay type: biochemical; details: at 20,000 nM inhibitor; kinase activity remaining
T21 construct: purchased Millipore KinaseProfiler

NEK11 = target: T22, NEK11 (Homo sapiens, UniProt Q8NG66); assay: Kinome profiler screen; assay type: biochemical; details: at 20,000 nM inhibitor; kinase activity remaining
T22 construct: purchased Millipore KinaseProfiler

BRK = target: T23, BRK (Homo sapiens, UniProt Q13882); assay: Kinome profiler screen; assay type: biochemical; details: at 20,000 nM inhibitor; kinase activity remaining
T23 construct: purchased Millipore KinaseProfiler

Src(T341M) = target: T24, Src(T341M) (Homo sapiens, UniProt P12931, T341M); assay: Kinome profiler screen; assay type: biochemical; details: at 20,000 nM inhibitor; kinase activity remaining
T24 construct: purchased Millipore KinaseProfiler

[2] = target: T25, PI3 Kinase (p110 β/p85β)(m) (Mus musculus, UniProt Q8BTI9); assay: Kinome profiler screen; assay type: biochemical; details: at 20,000 nM inhibitor; kinase activity remaining
T25 construct: purchased Millipore KinaseProfiler

DMPK = target: T26, DMPK (Homo sapiens, UniProt Q09013); assay: Kinome profiler screen; assay type: biochemical; details: at 20,000 nM inhibitor; kinase activity remaining
T26 construct: purchased Millipore KinaseProfiler

PKBβ = target: T27, PKBβ (Homo sapiens, UniProt P31751); assay: Kinome profiler screen; assay type: biochemical; details: at 20,000 nM inhibitor; kinase activity remaining
T27 construct: purchased Millipore KinaseProfiler

AMPKα1 = target: T28, AMPKα1 (Homo sapiens, UniProt Q13131); assay: Kinome profiler screen; assay type: biochemical; details: at 20,000 nM inhibitor; kinase activity remaining
T28 construct: purchased Millipore KinaseProfiler

MAPK2 = target: T29, MAPK2 (Homo sapiens, UniProt P28482); assay: Kinome profiler screen; assay type: biochemical; details: at 20,000 nM inhibitor; kinase activity remaining
T29 construct: purchased Millipore KinaseProfiler

NEK7 = target: T30, NEK7 (Homo sapiens, UniProt Q8TDX7); assay: Kinome profiler screen; assay type: biochemical; details: at 20,000 nM inhibitor; kinase activity remaining
T30 construct: purchased Millipore KinaseProfiler

GCK = target: T31, GCK (Homo sapiens, UniProt Q12851); assay: Kinome profiler screen; assay type: biochemical; details: at 20,000 nM inhibitor; kinase activity remaining
T31 construct: purchased Millipore KinaseProfiler

EphA3 = target: T32, EphA3 (Homo sapiens, UniProt P29320); assay: Kinome profiler screen; assay type: biochemical; details: at 20,000 nM inhibitor; kinase activity remaining
T32 construct: purchased Millipore KinaseProfiler

MINK = target: T33, MINK (Homo sapiens, UniProt Q8N4C8); assay: Kinome profiler screen; assay type: biochemical; details: at 20,000 nM inhibitor; kinase activity remaining
T33 construct: purchased Millipore KinaseProfiler

EGFR = target: T34, EGFR (Homo sapiens, UniProt P00533); assay: Kinome profiler screen; assay type: biochemical; details: at 20,000 nM inhibitor; kinase activity remaining
T34 construct: purchased Millipore KinaseProfiler

MKK4(m) = target: T35, MKK4(m) (Mus musculus, UniProt P47809); assay: Kinome profiler screen; assay type: biochemical; details: at 20,000 nM inhibitor; kinase activity remaining
T35 construct: purchased Millipore KinaseProfiler

[3] = tested on: IL-1β levels in brain cortex; assay: LPS-induced brain IL-1β in vivo; parameters: species or system C57Bl/6 mice; details: 20 mg/Kg oral gavage 1 hr before LPS 0.5 mg/kg i.p.; brain cortex at 6 hrs
CDK1/cyclinB = target: T36, CDK1/cyclinB (Homo sapiens, UniProt P06493); assay: Kinome profiler screen; assay type: biochemical; details: at 20,000 nM inhibitor; kinase activity remaining
T36 construct: purchased Millipore KinaseProfiler

MST1 = target: T37, MST1 (Homo sapiens, UniProt Q13043); assay: Kinome profiler screen; assay type: biochemical; details: at 20,000 nM inhibitor; kinase activity remaining
T37 construct: purchased Millipore KinaseProfiler

EphA5 = target: T38, EphA5 (Homo sapiens, UniProt P54756); assay: Kinome profiler screen; assay type: biochemical; details: at 20,000 nM inhibitor; kinase activity remaining
T38 construct: purchased Millipore KinaseProfiler

VRK2 = target: T39, VRK2 (Homo sapiens, UniProt Q86Y07); assay: Kinome profiler screen; assay type: biochemical; details: at 20,000 nM inhibitor; kinase activity remaining
T39 construct: purchased Millipore KinaseProfiler

ErbB4 = target: T40, ErbB4 (Homo sapiens, UniProt Q15303); assay: Kinome profiler screen; assay type: biochemical; details: at 20,000 nM inhibitor; kinase activity remaining
T40 construct: purchased Millipore KinaseProfiler

EGFR(L861Q) = target: T41, EGFR(L861Q) (Homo sapiens, UniProt P00533, L861Q); assay: Kinome profiler screen; assay type: biochemical; details: at 20,000 nM inhibitor; kinase activity remaining
T41 construct: purchased Millipore KinaseProfiler

IRR = target: T42, IRR (Homo sapiens, UniProt P14616); assay: Kinome profiler screen; assay type: biochemical; details: at 20,000 nM inhibitor; kinase activity remaining
T42 construct: purchased Millipore KinaseProfiler

[4] = at 20,000 nM inhibitor, kinase activity remaining, read-out: % Activity

T14 sequence (P10721 26-976 D816V): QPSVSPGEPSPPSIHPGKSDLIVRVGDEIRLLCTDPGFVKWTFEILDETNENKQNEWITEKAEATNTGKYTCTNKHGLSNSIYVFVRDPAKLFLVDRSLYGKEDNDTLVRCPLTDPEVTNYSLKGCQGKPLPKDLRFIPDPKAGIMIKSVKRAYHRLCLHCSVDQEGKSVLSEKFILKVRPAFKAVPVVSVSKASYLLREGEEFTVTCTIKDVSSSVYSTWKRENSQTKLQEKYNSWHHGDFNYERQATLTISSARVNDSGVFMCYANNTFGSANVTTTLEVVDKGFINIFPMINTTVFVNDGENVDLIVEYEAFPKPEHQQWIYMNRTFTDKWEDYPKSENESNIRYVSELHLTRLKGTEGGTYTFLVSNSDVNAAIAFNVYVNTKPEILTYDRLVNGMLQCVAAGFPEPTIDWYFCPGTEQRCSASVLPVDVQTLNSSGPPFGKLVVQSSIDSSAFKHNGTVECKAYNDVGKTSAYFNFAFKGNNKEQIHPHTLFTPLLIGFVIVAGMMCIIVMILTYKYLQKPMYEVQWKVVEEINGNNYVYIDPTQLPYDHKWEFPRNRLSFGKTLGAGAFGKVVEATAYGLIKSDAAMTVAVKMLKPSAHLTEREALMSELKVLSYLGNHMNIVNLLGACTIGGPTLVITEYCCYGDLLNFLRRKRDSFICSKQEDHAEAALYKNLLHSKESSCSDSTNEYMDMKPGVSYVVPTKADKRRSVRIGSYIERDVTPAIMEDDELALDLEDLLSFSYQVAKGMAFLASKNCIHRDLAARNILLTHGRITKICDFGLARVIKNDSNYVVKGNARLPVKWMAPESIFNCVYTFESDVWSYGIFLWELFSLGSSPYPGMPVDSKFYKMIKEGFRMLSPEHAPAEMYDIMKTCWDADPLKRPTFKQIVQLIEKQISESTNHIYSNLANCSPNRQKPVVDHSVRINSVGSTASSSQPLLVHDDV
T21 sequence (Q8BTI9 whole entry): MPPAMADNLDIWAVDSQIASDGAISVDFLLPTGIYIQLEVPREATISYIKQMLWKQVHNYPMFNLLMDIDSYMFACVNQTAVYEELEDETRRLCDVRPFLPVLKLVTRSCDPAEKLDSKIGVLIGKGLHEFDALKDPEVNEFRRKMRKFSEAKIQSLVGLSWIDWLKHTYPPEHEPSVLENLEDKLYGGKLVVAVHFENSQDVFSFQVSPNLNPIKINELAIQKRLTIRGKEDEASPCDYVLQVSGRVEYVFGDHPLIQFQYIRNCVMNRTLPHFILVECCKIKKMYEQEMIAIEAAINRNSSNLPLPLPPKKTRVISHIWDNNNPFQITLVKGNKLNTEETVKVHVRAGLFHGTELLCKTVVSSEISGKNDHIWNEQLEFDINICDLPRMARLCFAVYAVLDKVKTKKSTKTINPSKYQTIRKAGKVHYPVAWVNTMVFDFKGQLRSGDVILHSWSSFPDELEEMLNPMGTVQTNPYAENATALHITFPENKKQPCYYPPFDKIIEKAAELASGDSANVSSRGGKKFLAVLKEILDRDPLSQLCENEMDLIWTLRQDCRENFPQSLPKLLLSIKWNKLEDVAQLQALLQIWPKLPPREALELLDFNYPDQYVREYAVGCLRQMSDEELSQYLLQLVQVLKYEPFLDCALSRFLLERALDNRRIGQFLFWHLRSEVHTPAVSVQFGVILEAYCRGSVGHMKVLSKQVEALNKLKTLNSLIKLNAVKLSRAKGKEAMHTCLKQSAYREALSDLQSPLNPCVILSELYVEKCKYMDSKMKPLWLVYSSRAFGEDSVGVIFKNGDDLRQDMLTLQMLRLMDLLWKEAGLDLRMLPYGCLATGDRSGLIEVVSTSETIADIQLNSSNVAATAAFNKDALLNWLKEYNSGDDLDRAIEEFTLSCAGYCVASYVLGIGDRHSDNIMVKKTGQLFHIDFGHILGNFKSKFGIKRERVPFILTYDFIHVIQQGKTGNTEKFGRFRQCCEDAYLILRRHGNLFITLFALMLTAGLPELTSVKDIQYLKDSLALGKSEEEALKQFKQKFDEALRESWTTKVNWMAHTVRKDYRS
T21 sequence (P26450 2-724 partner): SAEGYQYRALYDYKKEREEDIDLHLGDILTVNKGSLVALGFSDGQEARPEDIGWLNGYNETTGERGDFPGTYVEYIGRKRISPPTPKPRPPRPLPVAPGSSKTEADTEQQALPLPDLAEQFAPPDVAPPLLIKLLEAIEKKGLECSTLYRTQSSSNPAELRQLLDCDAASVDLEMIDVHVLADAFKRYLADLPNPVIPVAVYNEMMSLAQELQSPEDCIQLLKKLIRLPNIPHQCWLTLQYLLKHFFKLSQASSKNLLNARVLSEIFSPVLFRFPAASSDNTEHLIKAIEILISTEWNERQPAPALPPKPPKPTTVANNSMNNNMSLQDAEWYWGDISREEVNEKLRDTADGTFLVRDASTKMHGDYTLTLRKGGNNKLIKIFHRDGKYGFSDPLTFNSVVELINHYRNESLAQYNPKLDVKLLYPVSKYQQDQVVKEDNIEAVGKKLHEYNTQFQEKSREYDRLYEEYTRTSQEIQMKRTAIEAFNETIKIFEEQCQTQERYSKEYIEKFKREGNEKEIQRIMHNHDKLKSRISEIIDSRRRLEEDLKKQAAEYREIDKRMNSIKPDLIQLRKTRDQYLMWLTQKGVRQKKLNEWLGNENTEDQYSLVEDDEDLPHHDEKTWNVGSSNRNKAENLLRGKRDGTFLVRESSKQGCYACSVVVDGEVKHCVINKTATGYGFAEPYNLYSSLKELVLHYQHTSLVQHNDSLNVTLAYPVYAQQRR
T25 sequence (Q8BTI9 whole entry): as the sequence (Q8BTI9 whole entry) above
T25 sequence (O08908 whole entry partner): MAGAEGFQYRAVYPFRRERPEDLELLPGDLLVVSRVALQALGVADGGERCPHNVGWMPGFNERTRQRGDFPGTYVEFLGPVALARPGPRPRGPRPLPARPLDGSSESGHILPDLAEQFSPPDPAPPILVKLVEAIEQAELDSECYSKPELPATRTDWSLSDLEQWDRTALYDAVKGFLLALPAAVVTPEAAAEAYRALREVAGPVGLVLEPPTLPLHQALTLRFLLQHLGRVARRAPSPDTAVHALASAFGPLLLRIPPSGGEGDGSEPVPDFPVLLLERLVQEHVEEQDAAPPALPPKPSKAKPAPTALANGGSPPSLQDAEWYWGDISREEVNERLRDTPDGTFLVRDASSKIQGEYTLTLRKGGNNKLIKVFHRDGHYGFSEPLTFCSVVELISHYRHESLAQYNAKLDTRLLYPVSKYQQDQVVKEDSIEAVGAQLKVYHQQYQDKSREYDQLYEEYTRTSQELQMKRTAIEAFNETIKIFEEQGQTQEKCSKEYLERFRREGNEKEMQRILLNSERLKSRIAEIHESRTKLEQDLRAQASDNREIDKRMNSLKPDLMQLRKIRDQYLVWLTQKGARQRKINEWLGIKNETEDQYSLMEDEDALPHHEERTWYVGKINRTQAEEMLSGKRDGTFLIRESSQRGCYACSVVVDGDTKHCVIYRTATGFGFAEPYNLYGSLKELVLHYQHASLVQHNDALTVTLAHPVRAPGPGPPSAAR
T18 sequence (Q9HBY8 whole entry): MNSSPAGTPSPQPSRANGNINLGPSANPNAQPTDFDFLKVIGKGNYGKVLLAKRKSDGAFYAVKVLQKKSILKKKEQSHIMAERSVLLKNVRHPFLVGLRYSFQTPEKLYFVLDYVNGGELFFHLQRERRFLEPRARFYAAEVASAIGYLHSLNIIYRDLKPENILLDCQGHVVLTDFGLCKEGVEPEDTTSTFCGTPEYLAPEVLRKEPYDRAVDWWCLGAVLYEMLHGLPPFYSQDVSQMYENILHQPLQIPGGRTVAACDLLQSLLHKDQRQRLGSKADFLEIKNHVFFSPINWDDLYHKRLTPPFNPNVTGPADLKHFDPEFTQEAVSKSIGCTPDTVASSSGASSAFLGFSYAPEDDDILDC
T2 sequence (P42680 whole entry): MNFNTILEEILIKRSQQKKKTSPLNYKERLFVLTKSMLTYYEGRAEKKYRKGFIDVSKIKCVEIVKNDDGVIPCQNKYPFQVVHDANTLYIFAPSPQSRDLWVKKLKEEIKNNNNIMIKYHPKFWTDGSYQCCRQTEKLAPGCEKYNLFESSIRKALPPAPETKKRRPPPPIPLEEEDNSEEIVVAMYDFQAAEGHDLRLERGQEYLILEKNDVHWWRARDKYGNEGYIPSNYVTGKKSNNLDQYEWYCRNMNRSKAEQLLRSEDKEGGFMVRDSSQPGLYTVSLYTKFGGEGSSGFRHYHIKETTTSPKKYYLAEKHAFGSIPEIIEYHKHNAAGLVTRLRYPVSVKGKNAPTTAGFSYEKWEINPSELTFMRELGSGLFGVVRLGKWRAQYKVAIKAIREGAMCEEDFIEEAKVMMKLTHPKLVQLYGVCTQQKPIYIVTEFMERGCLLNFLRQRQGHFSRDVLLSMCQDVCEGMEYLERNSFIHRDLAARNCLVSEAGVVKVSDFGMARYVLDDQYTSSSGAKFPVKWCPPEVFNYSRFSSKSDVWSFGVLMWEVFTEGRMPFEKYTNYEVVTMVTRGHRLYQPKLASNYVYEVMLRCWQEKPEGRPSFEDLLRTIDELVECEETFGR
T3 sequence (O43353 whole entry): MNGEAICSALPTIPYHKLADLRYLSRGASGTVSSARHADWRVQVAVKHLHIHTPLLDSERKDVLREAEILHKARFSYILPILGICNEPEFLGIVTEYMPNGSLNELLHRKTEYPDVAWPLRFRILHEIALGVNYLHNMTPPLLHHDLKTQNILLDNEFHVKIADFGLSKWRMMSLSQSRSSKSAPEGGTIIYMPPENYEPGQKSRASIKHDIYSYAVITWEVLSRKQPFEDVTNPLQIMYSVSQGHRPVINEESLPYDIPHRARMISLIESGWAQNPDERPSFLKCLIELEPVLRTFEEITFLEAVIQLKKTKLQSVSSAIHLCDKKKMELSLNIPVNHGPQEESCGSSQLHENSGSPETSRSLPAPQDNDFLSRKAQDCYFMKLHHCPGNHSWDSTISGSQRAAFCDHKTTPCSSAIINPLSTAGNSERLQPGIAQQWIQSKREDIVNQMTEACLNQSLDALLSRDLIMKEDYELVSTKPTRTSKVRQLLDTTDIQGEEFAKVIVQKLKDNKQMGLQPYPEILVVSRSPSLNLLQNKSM

CN(C)c1cc(-c2ccncc2)c(-c2ccc3ccccc3c2)nn1 [MW108, N, N-dimethyl-6-(naphthalen-2-yl)-5-(pyridin-4-yl)pyridazin-3-amine]
activity at 20 µM (CK2α2): 114% | activity at 20 µM (Tec(h) activated): 89% | activity at 20 µM (RIPK2): 57% | activity at 20 µM (PTK5): 80% | activity at 20 µM (Axl): 106% | activity at 20 µM (FGFR2): 101% | activity at 20 µM (PKCγ): 93% | activity at 20 µM (Plk3): 103% | activity at 20 µM (SRPK1): 114% | activity at 20 µM (CaMKI): 101% | activity at 20 µM (CaMKIIδ): 100% | activity at 20 µM (PKCμ): 70% | activity at 20 µM (CLK2): 103% | activity at 20 µM (cKit(D816V)): 103% | activity at 20 µM (PKBγ): 92% | activity at 20 µM (CK1δ): 33% | activity at 20 µM (IR): 100% | activity at 20 µM (SGK2): 92% | activity at 20 µM (IKKβ): 98% | activity at 20 µM (MST3): 98% | activity at 20 µM [1]: 99% | activity at 20 µM (NEK11): 108% | activity at 20 µM (BRK): 85% | activity at 20 µM (Src(T341M)): 92% | activity at 20 µM [2]: 101% | activity at 20 µM (DMPK): 108% | activity at 20 µM (PKBβ): 98% | activity at 20 µM (AMPKα1): 101% | activity at 20 µM (MAPK2): 113% | activity at 20 µM (NEK7): 108% | activity at 20 µM (GCK): 101% | activity at 20 µM (EphA3): 101% | activity at 20 µM (MINK): 48% | activity at 20 µM (EGFR): 79% | activity at 20 µM (MKK4(m)): 108% | LPS-induced IL-1β levels in vivo [3]: suppressed LPS-induced IL-1β levels in vivo | activity at 20 µM (CDK1/cyclinB): 90% | activity at 20 µM (MST1): 105% | activity at 20 µM (EphA5): 100% | activity at 20 µM (VRK2): 83% | activity at 20 µM (ErbB4): 52% | activity at 20 µM (EGFR(L861Q)): 49% | activity at 20 µM (IRR): 94%

CN(C)c1cc(-c2ccncc2)c(-c2cccc3ccccc23)nn1 [MW181, N,N-dimethyl-6-(naphthalen-1-yl)-5-(pyridin-4-yl)pyridazin-3-amine]
activity at 20 µM (CK2α2; [4]): 99% | activity at 20 µM (Tec(h) activated): 98% | activity at 20 µM (RIPK2): 84% | activity at 20 µM (PTK5): 90% | activity at 20 µM (Axl): 99% | activity at 20 µM (FGFR2): 98% | activity at 20 µM (PKCγ): 96% | activity at 20 µM (Plk3): 92% | activity at 20 µM (SRPK1; [4]): 103% | activity at 20 µM (CaMKI): 101% | activity at 20 µM (CaMKIIδ): 106% | activity at 20 µM (PKCμ): 70% | activity at 20 µM (CLK2): 98% | activity at 20 µM (cKit(D816V)): 103% | activity at 20 µM (PKBγ): 100% | activity at 20 µM (CK1δ): 89% | activity at 20 µM (IR): 112% | activity at 20 µM (SGK2): 102% | activity at 20 µM (IKKβ): 88% | activity at 20 µM (MST3): 98% | activity at 20 µM [1]: 101% | activity at 20 µM (NEK11): 121% | activity at 20 µM (BRK): 101% | activity at 20 µM (Src(T341M)): 102% | activity at 20 µM [2]: 100% | activity at 20 µM (DMPK): 116% | activity at 20 µM (PKBβ): 102% | activity at 20 µM (AMPKα1): 105% | activity at 20 µM (MAPK2): 97% | activity at 20 µM (NEK7): 102% | activity at 20 µM (GCK): 101% | activity at 20 µM (EphA3): 102% | activity at 20 µM (MINK): 54% | activity at 20 µM (EGFR): 103% | activity at 20 µM (MKK4(m)): 91% | LPS-induced IL-1β levels in vivo [3]: suppressed LPS-induced IL-1β levels in vivo | activity at 20 µM (CDK1/cyclinB): 113% | activity at 20 µM (MST1): 94% | activity at 20 µM (EphA5): 101% | activity at 20 µM (VRK2): 86% | activity at 20 µM (ErbB4): 78% | activity at 20 µM (EGFR(L861Q)): 56% | activity at 20 µM (IRR): 108%
